From US20090220964A1, “METHODS FOR DIAGNOSING AND TREATING CANCERS VIA MANIPULATIONS OF A...PATHWAY” (UNIVERSITY OF CINCINNATI, priority 2006, published 2009) come the findings set out here.

In assay [1] the test system is deubiquitylating enzymes, isopeptidase T and ubiquitin C-terminal hydrolase L3. The assay can be described thus: Deubiquitylation of Rpb1 in chromatin extract by deubiquitylating enzymes. It is filed as biochemical. To be noted: second 0.5 M chromatin fraction of VHL(+) cells. The text has this:
Rpb1 was immunoprecipitated using H14 antibody from the second 0.5 M chromatin fraction, and the immunoprecipitated Rpb1 was immunobloted with BP and anti-ubiquitin antibodies (FIG. 3D). Clearly, the Rpb1 hyperphosphorylated on Ser-5 is also hydroxylated and ubiquitylated in response to oxidative stress and this response depends on the presence of functional pVHL (FIG. 1C). To confirm ubiquitylation of the hydroxylated and hyperphosphorylated Rpb1, the extracts from the second 0.5 M chromatin fraction of VHL(+) cells were incubated with deubiquitylating enzymes, isopeptidase T and ubiquitin C-terminal hydrolase L3. This treatment results in disappearance of the high migrating forms (FIG. 3E. lane 3) which is prevented by ubiquitin aldehyde, an inhibitor of deubiquitylating enzymes (FIG. 3E, lane 4).

Assay [2] relates to pVHL. Put plainly: Immunoblot of crude chromatin fractions after H2O2 treatment. To be noted: cells expressing wild type pVHL, 25 μM H2O2, collected 4 h after treatment. For orientation: A western blot detects proteins with antibodies after separation by electrophoresis.
Excerpt: In our experiments, we fractionated the pool of Rpb1 engaged on DNA using nuclease digestion and different salt extractions: the nuclear pellet remaining after standard extraction of nuclei with 0.3 M salt was digested with DNAse and micrococcal nuclease, and the digest was then extracted with the indicated concentrations of NaCl (FIG. 3). […] Two other antibodies against Rpb1 were also used: H14, and N20, which is specific for the N-terminal region of Rpb1, independent of its phosphorylation state.
For assay [3], the system named is Rpb1. Particulars: 786-0 VHL(+) cells, 25 μM H2O2, 15 min, nuclease digested extracts.
Description: The antibody was used to investigate the role of oxidative stress in P1465 hydroxylation and pVHL-dependent ubiquitylation of Rpb1. […] The experiments were performed using RCC 786-0 cells, a well-characterized model of renal cell cancer, in which native pVHL is absent or stably reconstituted (in legend: 786-0 VHL(−) and VHL(+)). The cells were exposed briefly to a low concentration of H2O2 (25 μM, 15 min) to induce a generic oxidative stress, and assayed at the indicated time points after treatment.
For assay [4], the system named is HIF-1α peptide. To be noted: nuclear extracts from VHL(+) cells treated with 25 μM H2O2, collected after 4 h; 17-amino acid peptide. Here is the method: (§1) The in vitro reactions of synthetic Rpb1 and HIF-1α peptides were performed using nuclear extracts from cells treated with 25 μM H2O2 and collected after 4 h.
The test system of assay [5] is Rpb1 peptides. To be noted: nuclear extracts from 786-0 VHL(+) cells treated with 25 μM H2O2, collected after 4 h; 37- or 24-amino acid peptides. As to the method:
as §1

Turning to ubiquitin aldehyde, the “disappearance of high migrating (ubiquitylated) forms of Rpb1” value in assay [1] is reported as “prevented”.
Regarding `OO` [H2O2, hydrogen peroxide], the “enrichment of pVHL in chromatin extract fractions” value in assay [2] is 3.5+/−1.1 fold increase. Also, the “hydroxylation of Rpb1” value in assay [3] was “induced persistent (lasting several hours) pVHL-dependent hydroxylation of Rpb1”. For the same compound, the “HIF-1α peptide hydroxylation (capture of [35S]-labeled pVHL)” value in assay [4] is reported as “not affected”. In addition, the “Rpb1 peptide hydroxylation (capture of [35S]-labeled pVHL)” value in assay [5] is “augmented peptide hydroxylation”.
